Assay results: patent US20240182531A1, “KV1.3 Blockers” (priority 2021, published 2024)
Values joined by “and” are separate entries in the source; they are usually repeats but may differ in a detail not shown here. Identical values can stand only once. Like-named read-outs stand apart in the source and are kept apart here. Where a SMILES comes first, the peptide text is derived from it. Bridges are numbered along the chain shown (N, C = ends). [ ]: non-standard residue; d: D form. Nle = CCCC[C@H](N)C(=O)O

Experiments:
human Kv1.3 = molecular target: T1, human Kv1.3 (Homo sapiens, UniProt P22001); assay: cell-based; conditions: CHO cells, QPatch whole-cell; read-out: Potency IC50 Kv1.3
T1 construct: expressed in transfected cells; host or cells: CHO

human Kv1.2 = molecular target: T2, human Kv1.2 (Homo sapiens, UniProt P16389); assay: cell-based; conditions: ratio of patch clamp IC50 values
T2 construct: expressed in transfected cells; host or cells: CHO

human Kv1.1 = molecular target: T3, human Kv1.1 (Homo sapiens, UniProt Q09470); assay: cell-based; conditions: ratio of patch clamp IC50 values
T3 construct: expressed in transfected cells; host or cells: CHO

human Kv1.6 = molecular target: T4, human Kv1.6 (Homo sapiens, UniProt P17658); assay: cell-based; conditions: ratio of patch clamp IC50 values
T4 construct: expressed in transfected cells; host or cells: CHO

[1] = tested on: KLH ear inflammation model in rats; format: in vivo, rat; conditions: +/− SD
Rat whole blood = Rat whole blood (Rattus norvegicus, UniProt P15384); format: cell-based; conditions: IL-17A release, thapsigargin, 24 Hr, at least 2 replicates
[2] = tested on: Human peripheral blood mononuclear cells (PBMCs); format: cell-based; conditions: geometric mean, at least 6 replicates, Example 5b; read-out: anti-CD3 PBMC/IL-2 IC50
Description: Human peripheral blood mononuclear cells (PBMCs) were used to assess the effects of Kv1.3 blocker reference compounds on T-cell activation as determined by IL-2 release after stimulation with anti-CD3.
Human PBMCs were obtained from Precision for Medicine (Frederick, MD). Cells from 5 donors were used. Plate-bound anti-CD3 was used to stimulate bulk T cells in the PBMC preparations. Briefly, 96-well plates were coated with anti-CD3 antibody for app. 16 hours at 5° C., using 50 μl of a 1 μg/ml anti-CD3 solution diluted in PBS. Thereafter the plates were washed twice.
Kv1.3 blockers were subsequently diluted in medium (RPMI 1640 with Glutamax-I containing, 10% v/v Fetal Bovine Serum, 1% v/v penicillin-streptomycin Solution) and added in a volume of 50 μl. The compounds indicated in Table 8b were used at concentrations ranging from 0.3 pM to 1000 nM (half log dilutions, starting concentrations varying).
Finally, 50.000 PBMCs in the same medium were added to each well in a volume of 50 μl, giving a final volume of 100 μl per well. The plates were incubated for 20-24 hours in a 37° C./5% CO2 incubator. After centrifugation of the plates, 25 μl supernatant was transferred to IL-2 detection plates (MSD Human IL-2 Tissue Culture Kit, cat #K151AHB-2) and IL-2 was measures as described by the manufacturer (Meso Scale Discovery, Rockville, Maryland, USA).
All values derive from at least 6 replicates.

T1 sequence (P22001 whole entry): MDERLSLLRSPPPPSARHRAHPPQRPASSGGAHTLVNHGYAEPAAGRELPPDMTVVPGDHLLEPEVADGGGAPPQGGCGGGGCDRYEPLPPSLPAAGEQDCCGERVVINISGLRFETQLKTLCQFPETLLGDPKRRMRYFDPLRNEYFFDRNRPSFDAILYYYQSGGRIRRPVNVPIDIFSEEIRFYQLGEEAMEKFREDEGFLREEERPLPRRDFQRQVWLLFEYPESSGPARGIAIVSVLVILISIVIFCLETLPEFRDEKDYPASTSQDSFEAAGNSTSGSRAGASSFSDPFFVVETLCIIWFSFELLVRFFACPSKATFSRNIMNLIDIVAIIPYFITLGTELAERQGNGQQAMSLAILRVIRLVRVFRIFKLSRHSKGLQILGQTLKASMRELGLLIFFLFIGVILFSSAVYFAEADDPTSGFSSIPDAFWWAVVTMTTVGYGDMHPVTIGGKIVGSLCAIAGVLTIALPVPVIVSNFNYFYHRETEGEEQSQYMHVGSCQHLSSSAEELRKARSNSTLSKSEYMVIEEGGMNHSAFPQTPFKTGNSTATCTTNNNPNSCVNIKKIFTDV
T4 sequence (P17658 whole entry): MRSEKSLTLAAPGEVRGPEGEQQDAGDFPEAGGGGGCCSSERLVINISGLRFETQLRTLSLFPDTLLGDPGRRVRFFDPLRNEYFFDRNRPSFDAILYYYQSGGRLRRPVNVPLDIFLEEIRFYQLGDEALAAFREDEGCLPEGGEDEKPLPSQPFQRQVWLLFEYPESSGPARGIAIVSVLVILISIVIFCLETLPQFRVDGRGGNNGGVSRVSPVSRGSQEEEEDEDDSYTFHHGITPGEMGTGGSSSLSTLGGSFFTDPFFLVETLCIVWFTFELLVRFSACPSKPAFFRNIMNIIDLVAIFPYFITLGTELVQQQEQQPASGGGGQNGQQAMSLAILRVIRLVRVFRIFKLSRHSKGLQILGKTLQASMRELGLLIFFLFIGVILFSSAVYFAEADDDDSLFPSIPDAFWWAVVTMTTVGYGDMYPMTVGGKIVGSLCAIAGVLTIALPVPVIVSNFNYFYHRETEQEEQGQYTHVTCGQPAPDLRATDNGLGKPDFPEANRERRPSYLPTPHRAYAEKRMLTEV
T2 sequence (P16389 whole entry): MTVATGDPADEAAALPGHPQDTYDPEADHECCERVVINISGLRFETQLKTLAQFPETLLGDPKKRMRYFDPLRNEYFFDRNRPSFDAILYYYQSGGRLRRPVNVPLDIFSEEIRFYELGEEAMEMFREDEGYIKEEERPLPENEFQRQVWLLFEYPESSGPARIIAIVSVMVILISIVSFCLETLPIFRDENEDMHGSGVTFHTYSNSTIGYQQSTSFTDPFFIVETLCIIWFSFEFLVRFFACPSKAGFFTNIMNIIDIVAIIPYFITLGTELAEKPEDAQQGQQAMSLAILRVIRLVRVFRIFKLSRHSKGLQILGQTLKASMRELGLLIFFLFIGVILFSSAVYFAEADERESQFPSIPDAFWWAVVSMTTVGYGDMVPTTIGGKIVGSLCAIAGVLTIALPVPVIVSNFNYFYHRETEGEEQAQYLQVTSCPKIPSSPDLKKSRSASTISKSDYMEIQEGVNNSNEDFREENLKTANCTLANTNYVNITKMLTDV
Sequence of Rat whole blood (P15384 whole entry): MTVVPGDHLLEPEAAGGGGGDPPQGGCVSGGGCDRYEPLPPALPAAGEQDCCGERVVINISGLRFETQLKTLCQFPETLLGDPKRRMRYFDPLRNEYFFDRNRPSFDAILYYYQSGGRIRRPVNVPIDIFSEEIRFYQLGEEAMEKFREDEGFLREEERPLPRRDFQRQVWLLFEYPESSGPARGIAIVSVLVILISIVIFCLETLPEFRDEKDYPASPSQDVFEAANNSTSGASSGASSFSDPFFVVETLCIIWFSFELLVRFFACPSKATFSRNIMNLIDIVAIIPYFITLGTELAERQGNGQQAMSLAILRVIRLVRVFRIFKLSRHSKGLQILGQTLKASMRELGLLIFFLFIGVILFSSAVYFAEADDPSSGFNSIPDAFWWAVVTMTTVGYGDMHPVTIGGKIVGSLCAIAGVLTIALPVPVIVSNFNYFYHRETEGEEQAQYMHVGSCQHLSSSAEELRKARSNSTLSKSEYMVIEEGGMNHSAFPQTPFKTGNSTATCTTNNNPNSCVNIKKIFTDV
T3 sequence (Q09470 whole entry): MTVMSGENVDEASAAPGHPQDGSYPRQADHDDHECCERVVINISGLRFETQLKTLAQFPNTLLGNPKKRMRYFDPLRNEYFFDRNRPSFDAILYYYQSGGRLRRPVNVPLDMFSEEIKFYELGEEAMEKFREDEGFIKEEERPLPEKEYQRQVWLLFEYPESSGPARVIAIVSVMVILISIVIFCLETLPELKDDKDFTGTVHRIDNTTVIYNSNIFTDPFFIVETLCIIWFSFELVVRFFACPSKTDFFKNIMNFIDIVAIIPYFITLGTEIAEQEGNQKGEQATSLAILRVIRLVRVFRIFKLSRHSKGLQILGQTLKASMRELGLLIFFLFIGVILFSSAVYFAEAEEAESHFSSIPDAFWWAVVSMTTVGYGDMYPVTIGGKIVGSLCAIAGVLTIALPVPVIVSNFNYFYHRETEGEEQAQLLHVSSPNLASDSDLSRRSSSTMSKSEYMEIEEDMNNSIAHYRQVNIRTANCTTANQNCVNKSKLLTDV

CC[C@H](C)[C@@H]1NC(=O)[C@H](C)NC(=O)[C@H](CCCCN)NC(=O)[C@H](CC(C)C)NC(=O)[C@@H]2CSSC[C@@H](C(=O)N[C@@H](Cc3ccc(O)cc3)C(=O)N3CCC[C@H]3C(=O)N[C@@H](CCCNC(=N)N)C(N)=O)NC(=O)[C@H](CCCCN)NC(=O)[C@@H]3CSSC[C@H](NC(=O)[C@H](CCC(=O)O)NC(=O)[C@H](C(C)C)NC(=O)[C@H](CO)NC(=O)[C@H](C)NC(=O)[C@H](CCCCN)NC(=O)[C@@H](NC(=O)[C@H](CCCNC(=N)N)NC(=O)[C@H](CCSC)NC(=O)[C@H](CC(=O)O)NC(=O)[C@H](CCSC)NC(=O)[C@@H](N)CC(N)=O)CSSC[C@H](NC(=O)[C@H](CCCCN)NC(=O)CNC(=O)[C@H](Cc4ccccc4)NC(=O)[C@H]([C@@H](C)CC)NC(=O)[C@H](CO)NC(=O)CNC1=O)C(=O)N[C@@H](CCSC)C(=O)N[C@@H](CC(N)=O)C(=O)N[C@@H](CCCCN)C(=O)N[C@@H](CCCCN)C(=O)N3)C(=O)N[C@@H](CCCCN)C(=O)N[C@@H](CCC(N)=O)C(=O)N[C@@H](CCCCN)C(=O)N2 [compound 29] (H-NMDMRCKASVECKQKCLKAIGSIFGKCMNKKCKCYPR-NH2; disulfide 6-27, 12-32, 16-34)
IC50 (human Kv1.3): 0.09 nM
Selectivity ratio Kv1.2/Kv1.3 (human Kv1.2): 761
Selectivity ratio Kv1.1/Kv1.3 (human Kv1.1): >34200
Selectivity ratio Kv1.6/Kv1.3 (human Kv1.6): 4144

CC[C@H](C)[C@@H]1NC(=O)[C@H](C)NC(=O)[C@H](CCCCN)NC(=O)[C@H](CC(C)C)NC(=O)[C@@H]2CSSC[C@@H](C(=O)N[C@@H](Cc3ccc(O)cc3)C(=O)N3CCC[C@H]3C(=O)N[C@@H](CCCNC(=N)N)C(=O)O)NC(=O)[C@H](CCCCN)NC(=O)[C@@H]3CSSC[C@H](NC(=O)[C@H](CCC(=O)O)NC(=O)[C@H](C(C)C)NC(=O)[C@H](CO)NC(=O)[C@H](C)NC(=O)[C@H](CO)NC(=O)[C@@H](NC(=O)[C@H](CCCNC(=N)N)NC(=O)[C@H](CCSC)NC(=O)[C@H](CC(=O)O)NC(=O)[C@H](CCSC)NC(=O)[C@@H](N)CC(N)=O)CSSC[C@H](NC(=O)[C@H](CCCCN)NC(=O)CNC(=O)[C@H](Cc4ccccc4)NC(=O)[C@H]([C@@H](C)CC)NC(=O)[C@H](CO)NC(=O)CNC1=O)C(=O)N[C@@H](CCSC)C(=O)N[C@@H](CC(N)=O)C(=O)N[C@@H](CCCCN)C(=O)N[C@@H](CCCCN)C(=O)N3)C(=O)N[C@@H](CCCCN)C(=O)N[C@@H](CCC(N)=O)C(=O)N[C@@H](CCCCN)C(=O)N2 [compound 17] (H-NMDMRCSASVECKQKCLKAIGSIFGKCMNKKCKCYPR-OH; disulfide 6-27, 12-32, 16-34)
Selectivity ratio Kv1.2/Kv1.3 (human Kv1.2): 1540
Selectivity ratio Kv1.1/Kv1.3 (human Kv1.1): >11300
% inhibition of ear thickness (AUC of Δ ear thickness 0-48 hours) ([1]; 50 nmol/kg SC 24 hrs prior to KLH ear challenge): 37.3 (+/−13.8) %
% inhibition of ear thickness (AUC of Δ ear thickness 0-48 hours) ([1]; 70 nmol/kg SC 24 hrs prior to KLH ear challenge): 38.8 (+/−9.7) % and 25.0 (+/−12.5) %
IC50 (Rat whole blood): 1 nM
Selectivity ratio Kv1.6/Kv1.3 (human Kv1.6): >11300
IC50 [2]: 0.06 nM

CCCC[C@H](NC(=O)[C@H](CC(=O)O)NC(=O)[C@H](CCCC)NC(=O)[C@@H](N)CO)C(=O)N[C@@H](CCCNC(=N)N)C(=O)N[C@H]1CSSC[C@@H]2NC(=O)[C@H](CCCCN)NC(=O)CNC(=O)[C@H](Cc3ccccc3)NC(=O)[C@H]([C@@H](C)CC)NC(=O)[C@H](CO)NC(=O)CNC(=O)[C@H]([C@@H](C)CC)NC(=O)[C@H](C)NC(=O)[C@H](CCCCN)NC(=O)[C@H](CC(C)C)NC(=O)[C@@H]3CSSC[C@@H](C(=O)N[C@@H](Cc4ccc(O)cc4)C(=O)N4CCC[C@H]4C(=O)N[C@@H](CCCNC(=N)N)C(N)=O)NC(=O)[C@H](CCCNC(=N)N)NC(=O)[C@H](CSSC[C@H](NC(=O)[C@H](CCC(=O)O)NC(=O)[C@H](C(C)C)NC(=O)[C@H](CO)NC(=O)[C@H](C)NC(=O)[C@H](CO)NC1=O)C(=O)N[C@@H](CCCCN)C(=O)N[C@@H](CCC(N)=O)C(=O)N[C@@H](CCCCN)C(=O)N3)NC(=O)[C@H](CCCCN)NC(=O)[C@H](CCCCN)NC(=O)[C@H](CC(N)=O)NC(=O)[C@H](CCSC)NC2=O [compound 75] (H-S[Nle]D[Nle]RCSASVECKQKCLKAIGSIFGKCMNKKCRCYPR-NH2; disulfide 6-27, 12-32, 16-34)
IC50 (human Kv1.3): 0.13 nM
IC50 (Rat whole blood): 0.86 nM
